# Tests used:
# β-catenin/Tcf-4 = assay: cells; assay type: cell-based; settings: 24 hours of incubation with compound, ratio Firefly/Renilla luciferase
# Text: Background cell line: SW480 colorectal carcinoma DNA constructs:
# 1) Tcf-4-Luc: Tcf-4 binding sites driving Firefly Luciferase in the pGL3 vector—to measure the activity of β-catenin/Tcf-4;
# (§1) 2) SV40-Luc: SV40 binding site driving Firefly Luciferase in the pGL3 vector—as a control for non-specific inhibitors; and
# (§2) 3) SV40-R-Luc: SV40 binding site driving Renilla Luciferase in the pGL3 vector—as an internal control for cell number and toxicity.
# This screen uses 3 cell lines derived from SW480 and selected to contain the above luciferase reporters integrated into their chromosomes as follows: […]
# (§3) Cells: Tcf22C11 and SV5A8 were grown in the presence of 500 μg/ml G418 and Tcf 33.13 was grown in the presence of 500 μg/ml G418+125 μg/ml Zeocin to maintain the integrated reporters. The cells were trypsinized and plated at 1×10^4 cells/well in opaque 96 well plates.
# The compounds were diluted as follows: The compounds were stored frozen in dimethyl sulfoxide (DMSO) at […]. Compounds were initially titrated in DMSO to make a 1000×DMSO stock solution. Compounds were then diluted 1:25 into media/DMSO (DMEM+10% FBS+9% DMSO). Using the Biomek Multimek, the diluted compounds were mixed well and immediately added to the plated cells in a 1:40 dilution. The final concentration of DMSO in the assay plates was 0.316% DMSO.
# (§4) Assay Readout: The luciferase signal was detected using a luciferase detection kit from Promega. Until December 2003, Promega's Dual-Luciferase® Reporter (DLR™) Assay System was used to detect luciferase activity. Briefly, after 24 hours of incubation with compound, culture media was removed by aspiration and 20 ul of passive lysis buffer (Promega) per well was added. The plates were shaken for 15 min. Firefly substrate was then added and the resulting luminescence was immediately read on a CCD camera imaging device or a luminometer. After quantifying the firefly luminescence, the reaction was quenched, and the Renilla luciferase reaction was initiated simultaneously by adding Stop & Glo® Reagent to the same sample. Renilla luciferase was then quantified using the CCD camera or luminometer.
# Promega's Dual-Glo™ Luciferase Assay System can be used for luciferase detection. […] Briefly, after 24 hours of incubation with compound, culture media was removed by aspiration and 75 ul of fresh medium was added. Add 75 ul of Dual-Glo Luciferase Reagent (Promega) to each well and mix by shaking for 10 minutes on a plate shaker. Then, measure the firefly luminescence on a CCD camera imaging device or a luminometer. After quantifying the firefly luminescence, add 75 ul of Dual-Glo Stop & Glo Reagent (Promega) to each well and mix for 10 minutes. Renilla luciferase was then quantified using the CCD camera or luminometer.
# (§5) This assay was meant to confirm primary leads and determine IC50s. Compounds were tested at titrated dilutions. The raw data for this assay was reported in protocol 2463-B. Protocol 2463-C contains the IC50 calculations based on the raw data. The data calculations were done as follows:
# (§6) The data was expressed as % of control for both Firefly and Renilla Luciferase. The ratio of FF/Renilla (F/R) was then calculated and averaged between duplicate plates. The data was then plotted using LSW Data Analysis in Microsoft Excel. IC50s were determined by plotting the data in the LSW Data Analysis program using model 33. The IC50s (nM) for all three cell lines were reported.
# SV40-Luc = SV40-Luc control luciferase reporter assay, SV 5A8 cell line (SV40-Luc and SV40-R-Luc), control for non-specific inhibitors; assay type: cell-based, human; settings: SV 5A8 cells derived from SW480, 24 hours of incubation with compound, ratio Firefly/Renilla luciferase
# Text: Background cell line: SW480 colorectal carcinoma DNA constructs: […]
# as §1, §2
# This screen uses 3 cell lines derived from SW480 and selected to contain the above luciferase reporters integrated into their chromosomes as follows:
# SV 5A8—SV40-Luc and SV40-R-Luc
# as §3
# Compounds: 20-24 hours after cell plating, compounds were added at titrated concentrations between […]. The compounds were diluted as follows: The compounds were stored frozen in dimethyl sulfoxide (DMSO) at […]. Compounds were initially titrated in DMSO to make a 1000×DMSO stock solution. Compounds were then diluted 1:25 into media/DMSO (DMEM+10% FBS+9% DMSO). Using the Biomek Multimek, the diluted compounds were mixed well and immediately added to the plated cells in a 1:40 dilution. The final concentration of DMSO in the assay plates was 0.316% DMSO.
# as §4
# Promega's Dual-Glo™ Luciferase Assay System can be used for luciferase detection. It was similar to the DLR Assay, however, unlike the DLR which has to be read immediately due to decaying signal, the signal in the Dual-Glo™ Luciferase Assay was stable for up to 2 hours. Briefly, after 24 hours of incubation with compound, culture media was removed by aspiration and 75 ul of fresh medium was added. Add 75 ul of Dual-Glo Luciferase Reagent (Promega) to each well and mix by shaking for 10 minutes on a plate shaker. Then, measure the firefly luminescence on a CCD camera imaging device or a luminometer. After quantifying the firefly luminescence, add 75 ul of Dual-Glo Stop & Glo Reagent (Promega) to each well and mix for 10 minutes. Renilla luciferase was then quantified using the CCD camera or luminometer.
# as §5, §6
# [1] = Homo sapiens, SW480, 24 h, Tcf 33.13 cells derived from SW480
# [2] = Homo sapiens, Tcf22C11, 24 h, Tcf 22C11 cells derived from SW480
# [3] = Tcf 22C11 cells derived from SW480
# [4] = Tcf 33.13 cells derived from SW480
Molecule,IC50 (β-catenin/Tcf-4; [1]),IC50 (β-catenin/Tcf-4; [2]),"IC50 (SV40-Luc; Homo sapiens, SV5A8, 24 h)",IC50 (β-catenin/Tcf-4; [3]),IC50 (β-catenin/Tcf-4; [4]),IC50 (SV40-Luc)
"Cc1ccc2c(NCc3ccc(NC(=O)C4CCN(Cc5cc(F)ccc5F)CC4)cc3)nc(N(C)C)nc2c1 [Example 262, 1-(2,5-difluorobenzyl)-N-[4-({[2-(dimethylamino)-7-methylquinazolin-4-yl]amino}methyl)phenyl]piperidine-4-carboxamide]",184 nM,213 nM,> 4590 nM,,,
"Cc1ccc2nc(N(C)C)nc(NCc3ccc(NC(=O)c4ccc(F)c(F)c4)cc3)c2c1 [Example 36, N-[4-({[2-(dimethylamino)-6-methylquinazolin-4-yl]amino}methyl)phenyl]-3,4-difluorobenzamide]",866 nM,1170 nM,> 5590 nM,,,
"Cc1ccc(CN2CCC(C(=O)Nc3ccc(CNc4nc(N(C)C)nc5cc(C)ccc45)cc3)CC2)cc1 [Example 247, N-[4-({[2-(dimethylamino)-7-methylquinazolin-4-yl]amino}methyl)phenyl]-1-(4-methylbenzyl)piperidine-4-carboxamide]",467 nM,539 nM,> 4200 nM,,,
"Cc1ccc2nc(N(C)C)nc(NCc3ccc(NC(=O)c4ccc(Cl)cc4)cc3)c2c1 [Example 53, 4-chloro-N-[4-({[2-(dimethylamino)-6-methylquinazolin-4-yl]amino}methyl)phenyl]benzamide]",306 nM,462 nM,> 2800 nM,,,
"Cc1ccc2c(NCc3ccc(NC(=O)C4CCN(Cc5c(F)cc(F)cc5F)CC4)cc3)nc(N(C)C)nc2c1 [Example 260, N-[4-({[2-(dimethylamino)-7-methylquinazolin-4-yl]amino}methyl)phenyl]-1-(2,4,6-trifluorobenzyl)piperidine-4-carboxamide]",203 nM,215 nM,> 7870 nM,,,
"Cc1ccc2c(NCc3ccc(NC(=O)C4CCN(Cc5ccccc5)CC4)cc3)nc(N(C)CCO)nc2c1 [Example 139, 1-benzyl-N-{4-[({2-[(2-hydroxyethyl)(methyl)amino]-7-methylquinazolin-4-yl}amino)methyl]phenyl}piperidine-4-carboxamide]",1420 nM,1460 nM,> 18600 nM,,,
"CNc1nc(NCc2ccc(NC(=O)c3ccc(F)c(C)c3)cc2)c2ccccc2n1 [Example 17, 4-fluoro-3-methyl-N-[4-({[2-(methylamino)quinazolin-4-yl]amino}methyl)phenyl]benzamide]",> 6020 nM,7510 nM,> 12000 nM,,,
"Cc1ccc2c(NCc3ccc(NC(=O)C4CCN(C5CCCCC5)CC4)cc3)nc(N(C)C)nc2c1 [Example 245, 1-cyclohexyl-N-[4-({[2-(dimethylamino)-7-methylquinazolin-4-yl]amino}methyl)phenyl]piperidine-4-carboxamide]",809 nM,754 nM,> 9990 nM,,,
"N-{4-[({6,8-dimethyl-2-[(3S)-3-methylpiperazin-1-yl]quinazolin-4-yl}amino)methyl]phenyl}-4-fluorobenzamide [Example 50]",,,,> 1250 nM,1490 nM,> 5010 nM
"Cc1ccc2c(NCc3ccc(NC(=O)c4ccc(F)cc4)cc3)nc(N(C)Cc3ccco3)nc2c1 [Example 221, 4-fluoro-N-{4-[({2-[(2-furylmethyl)(methyl)amino]-7-methylquinazolin-4-yl}amino)methyl]phenyl}benzamide]",1060 nM,1240 nM,> 8200 nM,,,
"Cc1ccc2c(NCc3ccc(NC(=O)c4ccc(F)cc4)cc3)nc(N3CCN(CC(=O)NC(C)C)CC3)nc2c1 [Example 219, 4-fluoro-N-(4-{[(2-{4-[2-(isopropylamino)-2-oxoethyl]piperazin-1-yl}-7-methylquinazolin-4-yl)amino]methyl}phenyl)benzamide]",1420 nM,1800 nM,> 14600 nM,,,
"CNc1nc(NCc2ccc(NC(=O)c3ccc(Cl)cc3F)cc2)c2cc(C)cc(C)c2n1 [Example 35, 4-chloro-N-[4-({[6,8-dimethyl-2-(methylamino)quinazolin-4-yl]amino}methyl)phenyl]-2-fluorobenzamide]",> 21600 nM,> 21600 nM,> 21600 nM,,,
"Cc1ccc2c(NCc3ccc(NC(=O)c4ccc(F)cc4)cc3)nc(N3CCN(CC(=O)N4CCCC4)CC3)nc2c1 [Example 213, 4-fluoro-N-{4-[({7-methyl-2-[4-(2-oxo-2-pyrrolidin-1-ylethyl)piperazin-1-yl]quinazolin-4-yl}amino)methyl]phenyl}benzamide]",1390 nM,1710 nM,> 12400 nM,,,
"CCNc1nc(NCc2ccc(NC(=O)c3ccc(F)cc3)cc2)c2ccccc2n1 [Example 118, N-[4-({[2-(ethylamino)quinazolin-4-yl]amino}methyl)phenyl]-4-fluorobenzamide]",588 nM,942 nM,> 3010 nM,,,
4-chloro-2-fluoro-N-[4-({[6-methyl-2-(methylamino)quinazolin-4-yl]amino}methyl)phenyl]benzamide [Example 26],,,,739 nM,614 nM,> 2780 nM
"CNc1nc(NCc2ccc(NC(=O)c3ccc(Cl)cc3)cc2)c2cc(C(F)(F)F)ccc2n1 [Example 167, 4-chloro-N-[4-({[2-(methylamino)-6-(trifluoromethyl)quinazolin-4-yl]amino}methyl)phenyl]benzamide]",751 nM,919 nM,> 5140 nM,,,
"CNc1nc(NCc2ccc(NC(=O)c3ccc(Br)cc3)cc2)c2cccc(C)c2n1 [Example 265, 4-bromo-N-[4-({[8-methyl-2-(methylamino)quinazolin-4-yl]amino}methyl)phenyl]benzamide]",933 nM,1140 nM,> 4230 nM,,,
"CNc1nc(NCc2ccc(NC(=O)c3ccc(C#N)cc3)cc2)c2cc(C)ccc2n1 [Example 25, 4-cyano-N-[4-({[6-methyl-2-(methylamino)quinazolin-4-yl]amino}methyl)phenyl]benzamide]",2960 nM,2710 nM,> 5920 nM,,,
"Cc1ccc2nc(N3CCN(C)CC3)nc(NCc3ccc(NC(=O)c4ccc(F)cc4)cc3)c2c1 [Example 48, 4-fluoro-N-[4-({[6-methyl-2-(4-methylpiperazin-1-yl)quinazolin-4-yl]amino}methyl)phenyl]benzamide]",> 20600 nM,> 20600 nM,> 20600 nM,,,

# Reference: US20090004185A1, “AMINO-SUBSTITUTED QUINAZOLINE DERIVATIVES AS INHIBITORS OF BETA-CATENIN/TCF-4 PATHWAY AND CANCER TREATMENT AGENTS” (WYETH, priority 2007, published 2009)
